# Source: publication PMC5607265, “Design, synthesis and structure-activity relationship of 3,6-diaryl-7H-[1,2,4]triazolo[3,4-b][1,3,4]thiadiazines as novel tubulin inhibitors” (Scientific Reports, 2017)
# Columns and labels:
# [1] = system: tubulin network of SGC-7901 cells; assay: Immunofluorescence of tubulin network; format: cell-based, human; settings: 2-fold IC50 (0.022 µM), 12 h
# Experimental: CA-4 was employed as positive control in this experiment.
# Figure 4 Effects of 6i on tubulin network of SGC-7901 cells by immunofluorenscence. […] The left and middle panels represent the tubulin assembly stained with DAPI and FITC and the right panel represents a merge of the corresponding left and middle panels.
# The SGC-7901 cells were seeded at a density of 1 × 10^4 per well on a 24-well plate and grown for 24 h. […] Cells in the control group were treated with culture medium. The control and treated cells were fixed with 4% formaldehyde in PBS for 30 min at -20 °C, then washed twice with PBS and permeabilized with 0.1% (v/v) Triton X-100 in PBS for 5 min. Then, the cells were blocked with 3% bovine serum albumin (BSA) in PBS for 30 min. […] The cells were washed with PBS to remove unbound secondary antibody, nucleus was stained with 4,6-diamino-2-phenolindol dihydrochloride (DAPI) and then, immunofluorescence was detected using a fluorescence microscope (Olympus, Tokyo, Japan).
# Immunostaining was carried out to detect microtubule associated tubulin protein after exposure to 6i and CA-4. […] The cells were washed with PBS to remove unbound secondary antibody, nucleus was stained with 4,6-diamino-2-phenolindol dihydrochloride (DAPI) and then, immunofluorescence was detected using a fluorescence microscope (Olympus, Tokyo, Japan).
# HCT116 = system: HCT116; parameters: method as in Org. Biomol. Chem. 2005, 3, 2657-2660; settings: ref Org. Biomol. Chem. 2005, 3, 2657-2660; cited from earlier work
Compound,melting point,effect on microtubule/tubulin network [1],IC50 (HCT116)
"COc1cccc(-c2nnc3n2N=C(c2ccc(OC)c(N)c2)CS3)c1 [Compound 6i, 3-(3-Methoxyphenyl)-6-(3-amino-4-methoxyphenyl)-7H-[1,2,4]triazolo[3,4-b][1,3,4]thiadiazine]",138 to 140 °C,the tubulin network showed a disruption,–
"COc1ccc(/C=C\c2cc(OC)c(OC)c(OC)c2)cc1O [CA-4, Combretastatin A-4, reference compound]",–,the tubulin network showed a disruption,0.016 µM
